This series is described as follows: method code SF-HPLC, from DOI: 10.1002/jps.2600810814, PMID: 1403725.

The record followed here is the SangsterLogP compilation.

SMILES strings stand for the structures.

For orientation: logP means the decadic logarithm of the partition coefficient of the neutral form, usually between octanol and water. Read a high logP as a more lipophilic compound. On to `CC(C)N(N=O)C(C)C`, for which the log partition coefficient (logP) turned out to be 1.48.

For `CCN(C)N=O`, the logP came to 0.08. The figure for `CCCN(CCC)N=O` is 1.61; for `CCCCN(CCCC)N=O` it is 2.73; for `CCCCN(CCC)N=O` it is 2.13. The same measure for `CCCCN(CC)N=O`: 1.67. Regarding `CN(N=O)C(C)(C)C`, the logP came out at 0.86. The same measure for `CN(C)N=O`: -0.38; for `CCN(N=O)C(C)C`: 1. The figure for `CCCCCN(CCCCC)N=O` is 3.91; for `CCCN(C)N=O` it is 0.61. The figure for `CC(C)CN(CC(C)C)N=O` is 2.39; for `CCN(CC)N=O` it is 0.61. Regarding `CCCCN(C)N=O`, the logP stood at 1.12.
